Reference: article PMC5218480 (PLoS ONE, 2017)

Tested on: MV-4-11 cells
Test: Gene expression microarray analysis (Affymetrix PrimeView) and GSEA
Type: cell-based, human
Parameters: RFU PODN (11730768_x_at) / Fold change /veh PODN (11730768_x_at) / RFU LINC00158 (11744669_a_at) / Fold change /veh LINC00158 (11744669_a_at) / RFU DUSP10 (11751237_a_at) / Fold change /veh DUSP10 (11751237_a_at) / RFU ID3 (11757404_x_at) / Fold change /veh ID3 (11757404_x_at) / RFU PLEKHG5 (11737974_s_at) / Fold change /veh PLEKHG5 (11737974_s_at) / RFU LRRC4B (11730491_at) / Fold change /veh LRRC4B (11730491_at) / RFU GIMAP4 (11747438_a_at) / Fold change /veh GIMAP4 (11747438_a_at) / RFU KRT8 (11758183_x_at) / Fold change /veh KRT8 (11758183_x_at) / RFU CNN1 (11734310_a_at) / Fold change /veh CNN1 (11734310_a_at) / RFU VPS37D (11726825_at) / Fold change /veh VPS37D (11726825_at) / RFU C10orf10 (11716522_x_at) / Fold change /veh C10orf10 (11716522_x_at) / RFU KIR2DL2 /// KIR2DL4 /// KIR2DL5A /// KIR2DL5B /// KIR2DS1 /// KIR2DS2 /// KIR2DS3 /// KIR2DS4 /// KIR3DL3 /// KIR3DL3 /// KIR3DS1 (11738374_at) / Fold change /veh KIR2DL2 /// KIR2DL4 /// KIR2DL5A /// KIR2DL5B /// KIR2DS1 /// KIR2DS2 /// KIR2DS3 /// KIR2DS4 /// KIR3DL3 /// KIR3DL3 /// KIR3DS1 (11738374_at) / RFU C1QL1 (11718748_at) / Fold change /veh C1QL1 (11718748_at) / RFU TMPRSS4 (11747572_a_at) / Fold change /veh TMPRSS4 (11747572_a_at) / RFU HAMP (11756126_x_at) / Fold change /veh HAMP (11756126_x_at) / RFU RNFT2 (11725882_a_at) / Fold change /veh RNFT2 (11725882_a_at) / RFU NR4A2 (11747474_a_at) / Fold change /veh NR4A2 (11747474_a_at) / RFU ABCC12 (11746883_a_at) / Fold change /veh ABCC12 (11746883_a_at) / RFU TMEM136 (11760407_x_at) / Fold change /veh TMEM136 (11760407_x_at) / RFU CLDN22 /// WWC2 (11732394_at) / Fold change /veh CLDN22 /// WWC2 (11732394_at) / RFU HLA-DPB1 (11760878_x_at) / Fold change /veh HLA-DPB1 (11760878_x_at) / RFU SPINT1 (11716480_a_at) / Fold change /veh SPINT1 (11716480_a_at) / RFU GAP43 (11754022_s_at) / Fold change /veh GAP43 (11754022_s_at) / RFU A4GNT (11735810_at) / Fold change /veh A4GNT (11735810_at) / RFU PRB3 (11715151_x_at) / Fold change /veh PRB3 (11715151_x_at) / RFU TUBB4B (11761932_at) / Fold change /veh TUBB4B (11761932_at) / RFU CAPN14 (11732068_a_at) / Fold change /veh CAPN14 (11732068_a_at) / RFU TMCC2 (11721928_a_at) / Fold change /veh TMCC2 (11721928_a_at) / RFU IRGQ (11745062_a_at) / Fold change /veh IRGQ (11745062_a_at) / RFU FAM174B (11720279_a_at) / Fold change /veh FAM174B (11720279_a_at) / RFU TMPRSS4 (11748680_a_at) / Fold change /veh TMPRSS4 (11748680_a_at) / RFU FAM212B (11763350_a_at) / Fold change /veh FAM212B (11763350_a_at) / RFU PLEKHG5 (11743358_a_at) / Fold change /veh PLEKHG5 (11743358_a_at) / RFU ZSCAN30 (11745921_a_at) / Fold change /veh ZSCAN30 (11745921_a_at) / RFU CMKLR1 (11741424_a_at) / Fold change /veh CMKLR1 (11741424_a_at) / RFU LOC101060620 /// MAPK8IP1 (11723275_at) / Fold change /veh LOC101060620 /// MAPK8IP1 (11723275_at) / RFU SPTSSB (11747773_x_at) / Fold change /veh SPTSSB (11747773_x_at) / RFU PRSS12 (11739890_at) / Fold change /veh PRSS12 (11739890_at) / RFU BIN1 (11741810_x_at) / Fold change /veh BIN1 (11741810_x_at) / RFU WNT11 (11732464_a_at) / Fold change /veh WNT11 (11732464_a_at) / RFU C10orf10 (11716521_a_at) / Fold change /veh C10orf10 (11716521_a_at) / RFU C5orf56 (11738089_at) / Fold change /veh C5orf56 (11738089_at) / RFU CYB561 (11721691_x_at) / Fold change /veh CYB561 (11721691_x_at) / RFU ANKRD19P (11752326_a_at) / Fold change /veh ANKRD19P (11752326_a_at) / RFU OR2T12 /// OR2T33 /// OR2T8 (11738714_s_at) / Fold change /veh OR2T12 /// OR2T33 /// OR2T8 (11738714_s_at) / RFU VCAN (11748164_a_at) / Fold change /veh VCAN (11748164_a_at) / RFU JSRP1 (11732532_at) / Fold change /veh JSRP1 (11732532_at) / RFU KRTAP10-11 (11738290_x_at) / Fold change /veh KRTAP10-11 (11738290_x_at) / RFU MYO3A (11730013_a_at) / Fold change /veh MYO3A (11730013_a_at) / RFU EBF3 (11725865_a_at) / Fold change /veh EBF3 (11725865_a_at) / RFU CAMK2N1 (11719241_x_at) / Fold change /veh CAMK2N1 (11719241_x_at) / RFU C5orf56 (11738088_a_at) / Fold change /veh C5orf56 (11738088_a_at) / RFU OLFML3 (11715873_a_at) / Fold change /veh OLFML3 (11715873_a_at) / RFU LOC100653217 /// NTM (11731650_a_at) / Fold change /veh LOC100653217 /// NTM (11731650_a_at) / RFU MAPK11 (11762145_a_at) / Fold change /veh MAPK11 (11762145_a_at) / RFU FIZ1 (11724087_x_at) / Fold change /veh FIZ1 (11724087_x_at) / RFU OASL (11726364_x_at) / Fold change /veh OASL (11726364_x_at) / RFU SOX15 (11748057_x_at) / Fold change /veh SOX15 (11748057_x_at) / RFU CD79A (11719716_a_at) / Fold change /veh CD79A (11719716_a_at) / RFU HIST1H1D (11736915_at) / Fold change /veh HIST1H1D (11736915_at) / RFU CASKIN2 (11723855_a_at) / Fold change /veh CASKIN2 (11723855_a_at) / RFU LOC730098 (11760151_x_at) / Fold change /veh LOC730098 (11760151_x_at) / RFU OR4N2 (11742367_at) / Fold change /veh OR4N2 (11742367_at) / RFU PRRT2 (11749266_a_at) / Fold change /veh PRRT2 (11749266_a_at) / RFU SNX32 (11753110_a_at) / Fold change /veh SNX32 (11753110_a_at) / RFU CDHR5 (11726645_a_at) / Fold change /veh CDHR5 (11726645_a_at) / RFU RCAN1 (11760418_a_at) / Fold change /veh RCAN1 (11760418_a_at) / RFU FAM167A (11723789_a_at) / Fold change /veh FAM167A (11723789_a_at) / RFU FAM26E (11764081_at) / Fold change /veh FAM26E (11764081_at) / RFU ISYNA1 (11749810_s_at) / Fold change /veh ISYNA1 (11749810_s_at) / RFU ACY1 (11761880_at) / Fold change /veh ACY1 (11761880_at) / RFU 11764098_at / Fold change /veh 11764098_at / RFU SAMD14 (11745864_x_at) / Fold change /veh SAMD14 (11745864_x_at) / RFU NPB (11741838_a_at) / Fold change /veh NPB (11741838_a_at) / RFU TMPRSS6 (11731388_a_at) / Fold change /veh TMPRSS6 (11731388_a_at) / RFU KRTAP10-2 (11738614_at) / Fold change /veh KRTAP10-2 (11738614_at) / RFU ARHGAP8 /// PRR5-ARHGAP8 (11727945_x_at) / Fold change /veh ARHGAP8 /// PRR5-ARHGAP8 (11727945_x_at) / RFU KRTAP5-7 /// NADSYN1 (11734609_at) / Fold change /veh KRTAP5-7 /// NADSYN1 (11734609_at) / RFU RASL12 (11751679_a_at) / Fold change /veh RASL12 (11751679_a_at) / RFU CDKN2B (11736163_a_at) / Fold change /veh CDKN2B (11736163_a_at) / RFU PRF1 (11729649_at) / Fold change /veh PRF1 (11729649_at) / RFU, ZNF638 /// ZNF638-IT1 / Fold change vs veh, ZNF638 /// ZNF638-IT1 / RFU, PANK3 / Fold change vs veh, PANK3 / RFU, SH3YL1 / Fold change vs veh, SH3YL1 / RFU, ZEB2 / Fold change vs veh, ZEB2 / RFU, NRIP1 / Fold change vs veh, NRIP1 / RFU, PTTG1IP / Fold change vs veh, PTTG1IP / RFU, CAPN2 / Fold change vs veh, CAPN2 / RFU, MED14 / Fold change vs veh, MED14 / RFU, SNORA58 / Fold change vs veh, SNORA58 / RFU, C1orf63 / Fold change vs veh, C1orf63 / RFU, LRRFIP1 / Fold change vs veh, LRRFIP1 / RFU, NDUFAF7 / Fold change vs veh, NDUFAF7 / RFU, SLC12A2 / Fold change vs veh, SLC12A2 / RFU, IBTK / Fold change vs veh, IBTK / RFU, ESF1 / Fold change vs veh, ESF1 / Fold change vs veh, TMEM50B / RFU, TAOK1 / Fold change vs veh, TAOK1 / RFU, ACBD3 / Fold change vs veh, ACBD3 / RFU, TMA16 / Fold change vs veh, TMA16 / RFU, RWDD3 / Fold change vs veh, RWDD3 / RFU, BCAT1 / Fold change vs veh, BCAT1 / RFU, EDEM3 / Fold change vs veh, EDEM3 / RFU, TMEM33 / Fold change vs veh, TMEM33 / RFU, WDR75 / Fold change vs veh, WDR75 / RFU, AHCTF1 / Fold change vs veh, AHCTF1 / RFU, TFRC / Fold change vs veh, TFRC / RFU, ZDHHC17 / Fold change vs veh, ZDHHC17 / RFU, NOM1 / Fold change vs veh, NOM1 / RFU, ARL8B / Fold change vs veh, ARL8B / RFU, ZBTB11 / Fold change vs veh, ZBTB11 / RFU, TAMM41 / Fold change vs veh, TAMM41 / RFU, KIAA1704 /// LOC100996395 / Fold change vs veh, KIAA1704 /// LOC100996395 / RFU, ING1 / Fold change vs veh, ING1 / RFU, TRMT61B / Fold change vs veh, TRMT61B / RFU, FUBP3 / Fold change vs veh, FUBP3 / RFU, TP53 / Fold change vs veh, TP53 / RFU, TNKS2 / Fold change vs veh, TNKS2 / RFU, ZFP14 / Fold change vs veh, ZFP14 / RFU, ACTR2 / Fold change vs veh, ACTR2 / RFU, PPP3R1 / Fold change vs veh, PPP3R1 / RFU, PIK3R1 / Fold change vs veh, PIK3R1 / RFU, HNRNPA1 / Fold change vs veh, HNRNPA1 / RFU, RNF170 / Fold change vs veh, RNF170 / RFU, ZNF28 / Fold change vs veh, ZNF28 / RFU, RNGTT / Fold change vs veh, RNGTT / RFU, OGT / Fold change vs veh, OGT / RFU, BRD1 / Fold change vs veh, BRD1 / RFU, MARS / Fold change vs veh, MARS / RFU, ZNF655 / Fold change vs veh, ZNF655 / RFU, FAHD1 / Fold change vs veh, FAHD1 / RFU, BDP1 / Fold change vs veh, BDP1 / RFU, LRRCC1 / Fold change vs veh, LRRCC1 / RFU, ARID1A / Fold change vs veh, ARID1A / RFU, ZNF146 / Fold change vs veh, ZNF146 / RFU, ZNF330 / Fold change vs veh, ZNF330 / RFU, GPN3 / Fold change vs veh, GPN3 / RFU, C9orf123 / Fold change vs veh, C9orf123 / RFU, N4BP2L2 / Fold change vs veh, N4BP2L2 / RFU, ARFIP1 / Fold change vs veh, ARFIP1 / RFU, FAM179B / Fold change vs veh, FAM179B / RFU, BCL10 / Fold change vs veh, BCL10 / RFU, UHRF1BP1L / Fold change vs veh, UHRF1BP1L / RFU, BET1 / Fold change vs veh, BET1 / RFU, CNOT2 / Fold change vs veh, CNOT2 / RFU, ZNF268 / Fold change vs veh, ZNF268 / Fold change vs veh, ZNF507 / RFU, DGCR2 / Fold change vs veh, DGCR2 / RFU, WDSUB1 / Fold change vs veh, WDSUB1 / Fold change vs veh, HSP90B1 /// MIR3652 / RFU, ADSS / Fold change vs veh, ADSS / RFU, GK / Fold change vs veh, GK / RFU, ZNF148 / Fold change vs veh, ZNF148 / RFU, TAF9 / Fold change vs veh, TAF9 / RFU, SLC1A5 / Fold change vs veh, SLC1A5 / RFU, SLMO2 / Fold change vs veh, SLMO2 / RFU, ABCC4 / Fold change vs veh, ABCC4 / RFU, LOC101060439 /// RAP1B / Fold change vs veh, LOC101060439 /// RAP1B / RFU, RFX7 / Fold change vs veh, RFX7 / RFU, GTPBP10 / Fold change vs veh, GTPBP10 / RFU, CNEP1R1 / Fold change vs veh, CNEP1R1 / RFU, BIVM-ERCC5 /// ERCC5 / Fold change vs veh, BIVM-ERCC5 /// ERCC5 / RFU, ILF3 / Fold change vs veh, ILF3 / RFU 11762660_at / Fold change /veh 11762660_at / RFU VCAN (11757783_s_at) / Fold change /veh VCAN (11757783_s_at) / RFU DDX43 (11728927_at) / Fold change /veh DDX43 (11728927_at) / RFU KRT8 (11758188_x_at) / Fold change /veh KRT8 (11758188_x_at) / RFU NKD1 (11759106_at) / Fold change /veh NKD1 (11759106_at) / RFU SRD5A1 (11742802_a_at) / Fold change /veh SRD5A1 (11742802_a_at) / RFU TPSAB1 /// TPSB2 (11721975_s_at) / Fold change /veh TPSAB1 /// TPSB2 (11721975_s_at) / RFU GSTM3 (11746129_a_at) / Fold change /veh GSTM3 (11746129_a_at) / RFU IL23R (11737362_x_at) / Fold change /veh IL23R (11737362_x_at) / RFU TMEM51 (11727254_a_at) / Fold change /veh TMEM51 (11727254_a_at) / RFU PIWIL2 (11732686_x_at) / Fold change /veh PIWIL2 (11732686_x_at) / RFU ORM1 (11744905_x_at) / Fold change /veh ORM1 (11744905_x_at) / RFU CCDC152 (11743942_at) / Fold change /veh CCDC152 (11743942_at) / RFU ECM1 (11717891_a_at) / Fold change /veh ECM1 (11717891_a_at) / RFU IL23R (11748794_a_at) / Fold change /veh IL23R (11748794_a_at) / RFU TNFAIP8L3 (11732012_x_at) / Fold change /veh TNFAIP8L3 (11732012_x_at) / RFU MBOAT4 (11741988_at) / Fold change /veh MBOAT4 (11741988_at) / RFU 11764193_at / Fold change /veh 11764193_at / RFU TMEM53 (11763286_at) / Fold change /veh TMEM53 (11763286_at) / RFU MAGEB2 (11727129_at) / Fold change /veh MAGEB2 (11727129_at) / RFU TMEM200A (11744735_a_at) / Fold change /veh TMEM200A (11744735_a_at) / RFU CCDC152 (11751479_a_at) / Fold change /veh CCDC152 (11751479_a_at) / RFU FAM211A (11726209_a_at) / Fold change /veh FAM211A (11726209_a_at) / RFU RGS16 (11746705_a_at) / Fold change /veh RGS16 (11746705_a_at) / RFU VCAN (11755009_s_at) / Fold change /veh VCAN (11755009_s_at) / RFU RHOB (11743442_s_at) / Fold change /veh RHOB (11743442_s_at) / RFU RGS16 (11720943_a_at) / Fold change /veh RGS16 (11720943_a_at) / RFU RGS16 (11720944_at) / Fold change /veh RGS16 (11720944_at) / RFU, VPS4B / Fold change vs veh, VPS4B / RFU, CREB1 / Fold change vs veh, CREB1 / RFU, DNAJC13 / Fold change vs veh, DNAJC13 / RFU, GNAQ / Fold change vs veh, GNAQ / RFU, CDK5R1 / Fold change vs veh, CDK5R1 / RFU, ZRANB3 / Fold change vs veh, ZRANB3 / RFU, CUL4A / Fold change vs veh, CUL4A / RFU, CCNY / Fold change vs veh, CCNY / RFU, UFL1 / Fold change vs veh, UFL1 / RFU, COG3 / Fold change vs veh, COG3 / RFU, DIAPH2 / Fold change vs veh, DIAPH2 / RFU, SKA2 / Fold change vs veh, SKA2 / RFU, AFF3 / Fold change vs veh, AFF3 / RFU, LMF1 / Fold change vs veh, LMF1 / RFU, IPO11 / Fold change vs veh, IPO11 / RFU, DFFB / Fold change vs veh, DFFB / RFU, FOXP1 / Fold change vs veh, FOXP1 / RFU, CARD8 / Fold change vs veh, CARD8 / RFU, STRN3 / Fold change vs veh, STRN3 / RFU, ADK / Fold change vs veh, ADK / RFU, RASSF2 / Fold change vs veh, RASSF2 / RFU, WIPF1 / Fold change vs veh, WIPF1 / RFU, LARP1B / Fold change vs veh, LARP1B / RFU, RASA1 / Fold change vs veh, RASA1 / RFU, RB1 / Fold change vs veh, RB1 / RFU, PPFIA1 / Fold change vs veh, PPFIA1 / RFU, MAT2A / Fold change vs veh, MAT2A / RFU, CCT5 / Fold change vs veh, CCT5 / RFU, WDR92 / Fold change vs veh, WDR92 / RFU, CUX1 / Fold change vs veh, CUX1 / RFU, TTC7A / Fold change vs veh, TTC7A / RFU, TMEM135 / Fold change vs veh, TMEM135 / RFU, DEPTOR / Fold change vs veh, DEPTOR / RFU, CPM / Fold change vs veh, CPM / RFU, DNAJB6 / Fold change vs veh, DNAJB6 / RFU, CACNA2D3 / Fold change vs veh, CACNA2D3 / RFU, DTX4 / Fold change vs veh, DTX4 / RFU, TFCP2 / Fold change vs veh, TFCP2 / RFU, GMCL1 /// GMCL1P1 / Fold change vs veh, GMCL1 /// GMCL1P1 / RFU, AEBP2 / Fold change vs veh, AEBP2 / RFU, SNHG1 /// SNORD22 /// SNORD25 /// SNORD26 /// SNORD27 /// SNORD28 /// SNORD29 /// SNORD31 / Fold change vs veh, SNHG1 /// SNORD22 /// SNORD25 /// SNORD26 /// SNORD27 /// SNORD28 /// SNORD29 /// SNORD31 / Fold change (Aza/veh), C12orf56 (ProbeSet 11735607_a_at) / Fold change (ACY-1035/veh), C12orf56 (ProbeSet 11735607_a_at) / Fold change (Aza/veh), FGFR1OP (ProbeSet 11751329_s_at) / Fold change (ACY-1035/veh), FGFR1OP (ProbeSet 11751329_s_at) / Fold change (Aza/veh), VPS36 (ProbeSet 11739960_a_at) / Fold change (ACY-1035/veh), VPS36 (ProbeSet 11739960_a_at) / RFU SYPL1 (11715823_x_at) / Fold change /veh SYPL1 (11715823_x_at) / RFU IGFBP7 (11715501_s_at) / Fold change /veh IGFBP7 (11715501_s_at) / RFU REEP3 (11722064_at) / Fold change /veh REEP3 (11722064_at) / RFU IGLL1 (11728026_x_at) / Fold change /veh IGLL1 (11728026_x_at): dose or concentration left out as unconfirmed
Settings: MV-4-11 cells, 48 hours

SMILES: Nc1ccc(-c2cccs2)cc1NC(=O)c1ccc2c(c1)cc(C1CC1)n2CCN1CCOCC1 [ACY-1035]
- Fold change /veh DUSP10 (11751237_a_at): 1.17
